Data as given in ChEMBL document CHEMBL4342409, “Recent advancements of 4-aminoquinazoline derivatives as kinase inhibitors and their applications in medicinal chemistry” (Eur J Med Chem, 2019).
Blank lines part the entries; values can stand above or below the compound they belong to.

Tests used:
[1] = biological target: T1, Epidermal growth factor receptor (Homo sapiens, UniProt P00533)
Description: Inhibition of EGFR (unknown origin)

[2] = biological target: T2, Vascular endothelial growth factor receptor 2 (Homo sapiens, UniProt P35968); experiment: Inhibition of VEGFR2 (unknown origin)
T2 sequence (P35968 whole entry): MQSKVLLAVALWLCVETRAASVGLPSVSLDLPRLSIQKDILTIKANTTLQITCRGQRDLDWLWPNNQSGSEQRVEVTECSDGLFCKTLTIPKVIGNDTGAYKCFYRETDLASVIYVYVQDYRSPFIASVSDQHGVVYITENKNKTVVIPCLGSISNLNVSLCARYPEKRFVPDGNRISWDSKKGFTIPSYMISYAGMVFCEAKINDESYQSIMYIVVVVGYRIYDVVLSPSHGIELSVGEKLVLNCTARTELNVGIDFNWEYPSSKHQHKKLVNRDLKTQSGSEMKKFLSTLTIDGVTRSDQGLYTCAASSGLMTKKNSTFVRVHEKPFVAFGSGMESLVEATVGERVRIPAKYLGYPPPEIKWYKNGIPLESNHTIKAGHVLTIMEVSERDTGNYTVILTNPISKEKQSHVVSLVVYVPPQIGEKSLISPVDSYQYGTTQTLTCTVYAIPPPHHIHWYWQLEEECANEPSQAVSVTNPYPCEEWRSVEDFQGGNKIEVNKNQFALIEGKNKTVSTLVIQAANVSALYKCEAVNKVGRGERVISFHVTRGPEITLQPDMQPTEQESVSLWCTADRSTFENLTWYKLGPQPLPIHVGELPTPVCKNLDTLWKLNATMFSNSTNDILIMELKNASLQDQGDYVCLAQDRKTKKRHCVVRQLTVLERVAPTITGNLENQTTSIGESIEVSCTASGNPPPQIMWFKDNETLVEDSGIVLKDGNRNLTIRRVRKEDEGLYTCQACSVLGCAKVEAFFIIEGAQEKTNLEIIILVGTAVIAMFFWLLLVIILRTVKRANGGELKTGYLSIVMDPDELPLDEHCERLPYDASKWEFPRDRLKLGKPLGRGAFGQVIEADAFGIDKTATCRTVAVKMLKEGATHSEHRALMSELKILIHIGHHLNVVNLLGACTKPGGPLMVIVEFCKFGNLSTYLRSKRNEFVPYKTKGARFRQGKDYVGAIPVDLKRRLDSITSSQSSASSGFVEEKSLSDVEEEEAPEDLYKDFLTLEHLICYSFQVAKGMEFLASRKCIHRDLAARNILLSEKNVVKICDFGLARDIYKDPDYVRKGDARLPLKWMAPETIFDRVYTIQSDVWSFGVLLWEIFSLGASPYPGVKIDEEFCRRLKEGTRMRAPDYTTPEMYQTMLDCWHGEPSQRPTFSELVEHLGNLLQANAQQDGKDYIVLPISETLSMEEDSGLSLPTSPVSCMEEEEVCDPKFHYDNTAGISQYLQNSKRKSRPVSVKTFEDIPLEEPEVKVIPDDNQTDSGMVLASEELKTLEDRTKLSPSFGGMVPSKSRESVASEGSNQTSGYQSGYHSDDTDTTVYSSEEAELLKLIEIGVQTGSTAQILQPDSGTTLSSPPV

[3] = biological target: T3, Aurora kinase A (Homo sapiens) (UniProt O14965); experiment: Inhibition of Aurora A in human MCF7 cells relative to control; format: cell-based; settings: concentration not given here
T3 sequence (whole entry): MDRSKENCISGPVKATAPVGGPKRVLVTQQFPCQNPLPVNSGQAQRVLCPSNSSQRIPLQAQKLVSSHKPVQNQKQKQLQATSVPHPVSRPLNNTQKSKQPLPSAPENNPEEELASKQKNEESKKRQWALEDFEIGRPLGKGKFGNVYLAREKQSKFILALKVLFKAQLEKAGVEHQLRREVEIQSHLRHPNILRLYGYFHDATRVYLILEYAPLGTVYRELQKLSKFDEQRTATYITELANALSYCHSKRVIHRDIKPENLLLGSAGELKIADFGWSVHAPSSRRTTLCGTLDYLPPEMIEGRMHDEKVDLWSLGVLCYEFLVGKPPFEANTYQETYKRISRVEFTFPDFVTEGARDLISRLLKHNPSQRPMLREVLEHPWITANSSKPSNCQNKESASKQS

[4] = Cytotoxicity against human Embryonic stem cells assessed as reduction in cell growth at 2 nM incubated for 48 and 72 hrs by MTT assay; format: functional
[5] = Cytotoxicity against human HKESC1 cells assessed as reduction in cell growth at 2 nM incubated for 48 and 72 hrs by MTT assay; format: functional
[6] = Cytotoxicity against human EC1 cells assessed as reduction in cell growth at 2 nM incubated for 48 and 72 hrs by MTT assay; format: functional
[7] = Cytotoxicity against human HKESC2 cells assessed as reduction in cell growth at 2 nM incubated for 48 and 72 hrs by MTT assay; format: functional
[8] = Cytotoxicity against human SLMT1 cells assessed as reduction in cell growth at 2 nM incubated for 48 and 72 hrs by MTT assay; format: functional
[9] = Cytotoxicity against human KYSE10 cells assessed as reduction in cell growth at 2 nM incubated for 48 and 72 hrs by MTT assay; format: functional
[10] = Antitumor activity against rat FRE-erbB2 cells xenografted in CD-1 mouse assessed as tumor growth inhibition at 50 mg/kg, po after 1 hr by ELISA relative to control; format: functional; settings: read-out: TGI
[11] = biological target: T4, Proto-oncogene tyrosine-protein kinase Src (Homo sapiens, UniProt P12931); experiment: Inhibition of human recombinant Src expressed in baculovirus infected Sf9 insect cells assessed as reduction in phosphorylation of polyglutamic acid/tyrosine incubated for 15 mins by ELISA
T4 sequence (P12931 2-536 limits assumed): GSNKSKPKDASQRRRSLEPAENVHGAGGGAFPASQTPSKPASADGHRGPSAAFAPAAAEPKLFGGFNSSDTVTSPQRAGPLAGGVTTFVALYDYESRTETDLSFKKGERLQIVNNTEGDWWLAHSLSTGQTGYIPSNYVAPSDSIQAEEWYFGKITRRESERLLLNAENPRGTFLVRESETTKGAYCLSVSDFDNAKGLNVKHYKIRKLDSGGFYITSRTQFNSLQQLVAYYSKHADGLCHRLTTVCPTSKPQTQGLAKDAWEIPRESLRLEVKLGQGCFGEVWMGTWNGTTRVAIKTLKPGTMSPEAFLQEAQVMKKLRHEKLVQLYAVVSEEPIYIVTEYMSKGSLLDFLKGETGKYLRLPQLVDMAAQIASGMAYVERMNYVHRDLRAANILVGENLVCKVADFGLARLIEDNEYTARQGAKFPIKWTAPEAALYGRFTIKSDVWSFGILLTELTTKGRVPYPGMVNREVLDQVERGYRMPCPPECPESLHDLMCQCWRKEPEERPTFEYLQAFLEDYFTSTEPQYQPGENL

[12] = system: Human betaherpesvirus 5; experiment: Antiviral activity against recombinant HCMV AD169 infected in human foreskin fibroblasts measured after 7 days by GFP-based multi-round replication assay relative to control; format: functional, organism-based; settings: Human betaherpesvirus 5, AD169, 168 h
[13] = biological target: Receptor tyrosine-protein kinase erbB-4 (Homo sapiens, UniProt Q15303); experiment: Inhibition of HER4 (unknown origin)
Chain of Receptor tyrosine-protein kinase erbB-4 (Q15303 whole entry): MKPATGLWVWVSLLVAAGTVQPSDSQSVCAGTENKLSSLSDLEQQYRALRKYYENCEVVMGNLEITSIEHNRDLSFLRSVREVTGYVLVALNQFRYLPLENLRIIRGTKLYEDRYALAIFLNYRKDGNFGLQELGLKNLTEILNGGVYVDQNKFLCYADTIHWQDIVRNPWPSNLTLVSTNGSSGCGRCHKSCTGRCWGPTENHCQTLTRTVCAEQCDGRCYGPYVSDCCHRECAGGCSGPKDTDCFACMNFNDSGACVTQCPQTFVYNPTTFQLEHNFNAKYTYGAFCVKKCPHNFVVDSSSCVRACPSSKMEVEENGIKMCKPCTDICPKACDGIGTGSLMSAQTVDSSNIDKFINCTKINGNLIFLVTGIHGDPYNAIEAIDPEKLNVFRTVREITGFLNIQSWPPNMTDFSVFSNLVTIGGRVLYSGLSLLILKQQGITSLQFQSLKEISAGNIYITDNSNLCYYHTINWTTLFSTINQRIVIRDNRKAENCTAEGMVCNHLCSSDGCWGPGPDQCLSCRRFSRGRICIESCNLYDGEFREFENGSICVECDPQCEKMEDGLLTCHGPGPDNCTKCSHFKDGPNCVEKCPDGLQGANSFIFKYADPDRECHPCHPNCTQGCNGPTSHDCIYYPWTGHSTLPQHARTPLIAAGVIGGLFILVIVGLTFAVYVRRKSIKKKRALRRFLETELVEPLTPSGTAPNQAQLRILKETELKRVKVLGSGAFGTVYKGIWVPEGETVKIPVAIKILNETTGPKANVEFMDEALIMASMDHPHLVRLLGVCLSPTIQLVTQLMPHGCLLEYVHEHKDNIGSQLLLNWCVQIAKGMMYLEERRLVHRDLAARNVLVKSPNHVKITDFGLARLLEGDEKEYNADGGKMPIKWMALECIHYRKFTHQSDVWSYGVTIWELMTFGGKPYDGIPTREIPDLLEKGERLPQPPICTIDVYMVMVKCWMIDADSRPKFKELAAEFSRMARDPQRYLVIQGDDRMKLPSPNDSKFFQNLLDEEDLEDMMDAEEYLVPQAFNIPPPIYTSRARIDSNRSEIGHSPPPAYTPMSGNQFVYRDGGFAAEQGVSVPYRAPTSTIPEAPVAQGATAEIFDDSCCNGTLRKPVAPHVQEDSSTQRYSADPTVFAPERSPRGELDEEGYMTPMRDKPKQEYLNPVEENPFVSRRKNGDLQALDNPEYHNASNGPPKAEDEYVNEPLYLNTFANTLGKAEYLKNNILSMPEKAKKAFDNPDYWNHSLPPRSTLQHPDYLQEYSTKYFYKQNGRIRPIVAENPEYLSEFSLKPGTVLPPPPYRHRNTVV

[14] = biological target: Epidermal growth factor receptor (Homo sapiens, UniProt P00533, T790M); experiment: Inhibition of EGFR T790M mutant (unknown origin)
[15] = Antiproliferative activity against human NHBE cells assessed as reduction in cell viability incubated for 72 hrs by MTT assay; format: cell-based
[16] = biological target: Epidermal growth factor receptor (Homo sapiens, UniProt P00533, L858R/T790M); experiment: Inhibition of human recombinant GST-tagged EGFR L858R/T790M mutant (catalytic domain 695 to end) expressed in baculovirus-infected Sf9 cells assessed as reduction in phosphorylation of polyglutamic acid/tyrosine incubated for 60 mins by ADP-Glo assay
[17] = biological target: T1, Epidermal growth factor receptor; experiment: Inhibition of human recombinant GST-tagged EGFR (catalytic domain 695 to end) expressed in baculovirus-infected Sf9 cells assessed as reduction in phosphorylation of polyglutamic acid/tyrosine incubated for 60 mins by ADP-Glo assay
[18] = system: Plasmodium falciparum; experiment: Antimalarial activity against Plasmodium falciparum 3D7 infected in human erythrocytes after 72 hrs by SYBR Green1 dye based fluorescence assay relative to control; format: functional, organism-based; settings: 3D7, 72 h
[19] = biological target: Vascular endothelial growth factor receptor 3 (Homo sapiens, UniProt P35916); experiment: Inhibition of VEGFR3 (unknown origin)
[20] = biological target: T4, Proto-oncogene tyrosine-protein kinase Src; experiment: Inhibition of SRC (unknown origin)
[21] = biological target: T2, Vascular endothelial growth factor receptor 2; experiment: Inhibition of VEGFR2 in human HUVEC assessed as reduction in cell proliferation at 10 uM incubated for 72 hrs by alamarBlue assay; format: cell-based
[22] = biological target: T2, Vascular endothelial growth factor receptor 2; experiment: Inhibition of human recombinant GST-tagged VEGFR2 (catalytic domain 805 to 1356 residues) expressed in Sf9 insect cells incubated for 45 mins by Kinase-Glo assay
[23] = system: A549; experiment: In vivo inhibition of neo-vascularisation in human A549 cells xenografted in athymic mouse at 50 mg/kg/day, po administered for 5 days measured after 24 hrs of last dose by light microscopy; format: functional
[24] = system: DU-145; experiment: Antitumor activity against human DU145 cells xenografted in CB17 SCID model mouse assessed as inhibition of tumor growth at 25 mg/kg, po administered for 54 days; format: functional; design: scale not given: the % may be the effect or the level left

T1 sequence (P00533 whole entry): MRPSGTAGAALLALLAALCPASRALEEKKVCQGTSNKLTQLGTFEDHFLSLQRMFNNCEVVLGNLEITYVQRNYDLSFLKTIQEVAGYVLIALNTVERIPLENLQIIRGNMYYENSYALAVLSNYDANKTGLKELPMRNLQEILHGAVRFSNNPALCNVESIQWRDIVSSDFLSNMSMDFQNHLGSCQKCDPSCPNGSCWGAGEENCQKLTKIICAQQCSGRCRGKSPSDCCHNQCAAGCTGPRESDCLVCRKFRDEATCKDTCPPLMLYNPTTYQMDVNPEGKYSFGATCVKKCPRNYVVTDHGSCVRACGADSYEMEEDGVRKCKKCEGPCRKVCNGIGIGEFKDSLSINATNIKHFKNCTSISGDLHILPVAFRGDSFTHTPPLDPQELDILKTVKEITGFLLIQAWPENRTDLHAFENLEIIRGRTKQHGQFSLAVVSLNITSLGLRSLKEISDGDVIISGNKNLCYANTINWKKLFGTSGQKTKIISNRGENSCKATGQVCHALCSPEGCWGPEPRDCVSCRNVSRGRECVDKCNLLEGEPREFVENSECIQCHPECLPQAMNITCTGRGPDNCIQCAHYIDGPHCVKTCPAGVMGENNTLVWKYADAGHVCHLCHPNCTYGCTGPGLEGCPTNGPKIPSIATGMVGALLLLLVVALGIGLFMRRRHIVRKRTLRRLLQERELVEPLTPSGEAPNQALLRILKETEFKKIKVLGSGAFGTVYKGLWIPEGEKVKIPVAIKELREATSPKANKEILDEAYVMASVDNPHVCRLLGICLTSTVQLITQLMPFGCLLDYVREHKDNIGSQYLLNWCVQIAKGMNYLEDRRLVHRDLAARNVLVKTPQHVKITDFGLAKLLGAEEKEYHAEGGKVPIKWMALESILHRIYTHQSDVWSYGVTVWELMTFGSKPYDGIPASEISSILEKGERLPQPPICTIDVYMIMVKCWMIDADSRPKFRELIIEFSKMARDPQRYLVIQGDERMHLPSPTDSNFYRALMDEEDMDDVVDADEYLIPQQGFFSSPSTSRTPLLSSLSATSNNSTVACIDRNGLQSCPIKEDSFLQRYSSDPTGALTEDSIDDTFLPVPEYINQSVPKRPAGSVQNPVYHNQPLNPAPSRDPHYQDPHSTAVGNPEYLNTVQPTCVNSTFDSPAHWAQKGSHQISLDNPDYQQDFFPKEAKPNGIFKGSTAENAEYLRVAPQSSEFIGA

IC50 [1]: 2 nM
IC50 [2]: 103 nM
Compound: C=CC(=O)Nc1cc2c(Nc3ccc(Br)cc3F)ncnc2cc1OCCCC(=O)CN(C)C

inhibition [3]: 60%
Compound: COc1cc2c(Nc3ccc(C(=O)Nc4ccccc4)cc3)ncnc2cc1O

Compound: CN(C)C/C=C/C(=O)Nc1cc2c(Nc3ccc(F)c(Cl)c3)ncnc2cc1O[C@H]1CCOC1 [AFATINIB]
inhibition at 0.002 µM [4]: > 95%
inhibition at 0.002 µM [5]: > 95%
inhibition at 0.002 µM [6]: > 95%
inhibition at 0.002 µM [7]: > 95%
inhibition at 0.002 µM [8]: > 95%
inhibition at 0.002 µM [9]: > 95%

Compound: COCC(=O)NC/C=C/c1ccc2ncnc(Nc3ccc(Oc4ccc(C)nc4)c(C)c3)c2c1 [CP-724714]
inhibition in vivo at 50 mg/kg [10]: 50%

IC50 [11]: 5 nM
Compound: COc1ccc(Cl)c(Nc2ncnc3cc(OCC4CCN(C)CC4)c(OC)cc23)c1 [AZM-475271]

Compound: C[C@H]1[C@@H](CC(=O)Nc2ccc3ncnc(Nc4ccc(Cl)c(Cl)c4)c3c2)O[C@@H]2O[C@@]3(C)CC[C@H]4[C@H](C)CC[C@@H]1[C@@]24OO3
EC50 [12]: 150000 to 210000 nM

IC50 [13]: 4 nM
Compound: C[C@@H]1COC(Nc2ccc3ncnc(Nc4ccc(OCc5nccs5)c(Cl)c4)c3c2)=N1 [VARLITINIB]

Compound: C=CC(=O)Nc1ccc(Nc2ncnc3cc(OC)c(OCCN4CCOCC4)cc23)cc1
IC50 [14]: 4.3 nM
IC50 [1]: 105 nM
IC50 [15]: > 34000 nM
IC50 [16]: 4.3 nM
IC50 [17]: 105 nM

Compound: C[C@H]1[C@H](OC(=O)CCC(=O)Nc2ccc3ncnc(Nc4ccc(Cl)c(Cl)c4)c3c2)O[C@@H]2O[C@@]3(C)CC[C@H]4[C@H](C)CC[C@@H]1[C@@]24OO3
EC50 [12]: 150000 to 210000 nM
EC50 [18]: 1.4 nM

IC50 [1]: < 10 nM
IC50 [13]: 11 to 99 nM
IC50 [19]: 11 to 99 nM
IC50 [20]: 11 to 99 nM
Compound: COc1cc2ncnc3c2cc1OCCCCCN(C)Cc1ccc(Br)cc1N3 [JNJ-26483327]

inhibition [21]: 80 to 99.6%
IC50 [22]: 5 nM
Compound: COc1cc2ncnc(-n3ncc4cc(NC(=O)Nc5ccc(C)c(Cl)c5)ccc43)c2cc1OC

Compound: COc1cc2/c(=N/c3ccc(Br)cc3F)nc[nH]c2cc1OCC1CCN(C)CC1 [VANDETANIB]
inhibition in vivo at 50 mg/kg/day [23]: 63%

Compound: CN1CCN(CCOc2cc(OC3CCOCC3)c3c(Nc4c(Cl)ccc5c4OCO5)ncnc3c2)CC1 [SARACATINIB]
Activity [24]: 45%
